Test results taken from BigSolDB 2.1.

O=C(Nc1c(Cl)cncc1Cl)c1ccc(OC(F)F)c(OCC2CC2)c1
solubility (mole fraction)
Conditions	278.2 K	283.2 K	288.2 K	293.2 K	298.2 K	303.2 K	308.2 K	313.2 K	318.2 K	323.2 K
in 2-butanone	0.000102	0.00013	0.000165	0.000204	0.000264	0.000351	0.000448	0.000586	0.00081	0.00118
in 2-pentanone	7.4e-05	9.8e-05	0.000114	0.00016	0.000219	0.000311	0.000402	0.000551	0.000756	0.00101
in DMF	4e-06	6e-06	8e-06	1.3e-05	1.9e-05	3.1e-05	4.3e-05	6.1e-05	8.6e-05	0.000119
in DMSO	3.3e-05	4.2e-05	6.3e-05	9e-05	0.000132	0.000171	0.000236	0.00033	0.000457	0.000629
in ethanol	6.5e-05	8.8e-05	0.000106	0.00015	0.000208	0.000297	0.000387	0.000533	0.000734	0.000989
in n-butanol	4.5e-05	6.2e-05	7.8e-05	0.000112	0.000156	0.000226	0.000296	0.000411	0.00057	0.000782
in n-propanol	4.9e-05	7.6e-05	9.4e-05	0.000131	0.000175	0.000244	0.000328	0.000455	0.000625	0.000868

Cc1nnc(C(C)C)n1C1C[C@H]2CC[C@@H](C1)N2CC[C@H](NC(=O)C1CCC(F)(F)CC1)c1ccccc1 (stereo not given in full)
solubility (mole fraction)
Conditions	278.2 K	283.2 K	288.2 K	293.2 K	298.2 K	303.2 K	308.2 K	313.2 K	318.2 K	323.2 K
in 2-butanone	0.000179	0.000262	0.000349	0.000491	0.000715	0.00102	0.00137	0.00193	0.00257	0.00351
in 2-pentanone	0.000152	0.000224	0.000296	0.000418	0.000607	0.00087	0.00119	0.00168	0.00229	0.00316
in DMF	3.5e-05	5.6e-05	7.6e-05	0.000112	0.000168	0.000244	0.000341	0.000507	0.000689	0.00101
in DMSO	1.4e-05	2.4e-05	3.7e-05	5.6e-05	8.4e-05	0.000128	0.000173	0.000263	0.000358	0.00053
in ethanol	0.000281	0.000404	0.00052	0.000716	0.00102	0.00144	0.00189	0.00263	0.00344	0.00461
in n-butanol	0.0002	0.000293	0.000383	0.000533	0.000778	0.00112	0.0015	0.00212	0.00282	0.00387
in n-propanol	0.00021	0.00031	0.00042	0.000609	0.00088	0.00124	0.00167	0.00235	0.00311	0.00421
in water	6e-06	9e-06	1.2e-05	1.7e-05	2.5e-05	3.6e-05	4.8e-05	6.9e-05	9.2e-05	0.000129
